Experimental data taken from the supplement of paper PMC10307832.

Experiments:
Experiment in all cases: relative viability (nuclei count vs DMSO), 5 days (fraction); higher = more cells survive
Metformin + Foretinib = compound: CN(C)C(=N)NC(=N)N [Metformin] + COc1cc2c(Oc3ccc(NC(=O)C4(C(=O)Nc5ccc(F)cc5)CC4)cc3F)ccnc2cc1OCCCN1CCOCC1 [Foretinib] (partner 0.25 µM)
How it was run: (§1)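 Cells from lung cancer lines were seeded into 1536-well plates and, one day later, dosed by pin tool. Treatments were either a single drug or a fixed dose of an anchor drug with five library-drug doses (not always all listed) in √10 steps. After 5 days, nuclei were stained in a one-step fixation (final 0.05% Triton X-100, 1% formaldehyde, 1 ug/ml Hoechst) and counted on 4× images, and relative viability is the treated-to-vehicle nuclei ratio, as the median of duplicate plates.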

Apatinib + OSI-027 = compound: N#CC1(c2ccc(NC(=O)c3cccnc3NCc3ccncc3)cc2)CCCC1 [Apatinib] + COc1cccc2cc(-c3nc([C@H]4CC[C@H](C(=O)O)CC4)n4ncnc(N)c34)[nH]c12 [OSI-027] (partner 0.5 µM)
How it was run: as §1

Apatinib + Lapatinib = compound: N#CC1(c2ccc(NC(=O)c3cccnc3NCc3ccncc3)cc2)CCCC1 [Apatinib] + CS(=O)(=O)CCNCc1ccc(-c2ccc3ncnc(Nc4ccc(OCc5cccc(F)c5)c(Cl)c4)c3c2)o1 [Lapatinib] (partner 2 µM)
How it was run: as §1

Apatinib + Pemetrexed = compound: N#CC1(c2ccc(NC(=O)c3cccnc3NCc3ccncc3)cc2)CCCC1 [Apatinib] + Nc1nc2[nH]cc(CCc3ccc(C(=O)N[C@@H](CCC(=O)O)C(=O)O)cc3)c2c(=O)[nH]1 [Pemetrexed] (partner 0.2 µM)
How it was run: as §1

Cell Line | relative viability (Metformin + Foretinib; first compound 10 µM) | relative viability (Metformin + Foretinib; first compound 31.62 µM) | relative viability (Metformin + Foretinib; first compound 100 µM) | relative viability (Metformin + Foretinib; first compound 316.23 µM) | relative viability (Metformin + Foretinib; first compound 1000 µM) | relative viability (Apatinib + OSI-027; first compound 0.08 µM) | relative viability (Apatinib + OSI-027; first compound 0.253 µM) | relative viability (Apatinib + OSI-027; first compound 0.8 µM) | relative viability (Apatinib + OSI-027; first compound 2.53 µM) | relative viability (Apatinib + OSI-027; first compound 8 µM) | relative viability (Apatinib + Lapatinib; first compound 0.08 µM) | relative viability (Apatinib + Lapatinib; first compound 0.253 µM) | relative viability (Apatinib + Lapatinib; first compound 0.8 µM) | relative viability (Apatinib + Lapatinib; first compound 2.53 µM) | relative viability (Apatinib + Lapatinib; first compound 8 µM) | relative viability (Apatinib + Pemetrexed; first compound 0.253 µM) | relative viability (Apatinib + Pemetrexed; first compound 0.8 µM) | relative viability (Apatinib + Pemetrexed; first compound 2.53 µM) | relative viability (Apatinib + Pemetrexed; first compound 8 µM) | relative viability (Apatinib + Pemetrexed; first compound 0.08 µM)
PC-3 [JPC-3] | 0.808 | 0.945 | 0.996 | 0.93 | 0.946 | 0.747 | 0.639 | 0.627 | 0.517 | 0.571 | 0.472 | 0.441 | 0.444 | 0.394 | 0.43 | 1.05 | 1.05 | 0.726 | 0.807 | 
EKVX | 0.456 | 1.03 | 0.886 |  | 0.303 | 0.684 | 0.688 | 0.654 | 0.639 | 0.558 | 0.186 | 0.131 | 0.229 | 0.186 | 0.188 | 0.357 | 0.379 | 0.342 | 0.346 | 0.434
HCC-827 |  | 0.899 | 0.974 | 0.807 | 0.889 | 0.856 | 0.742 | 0.575 | 0.719 | 0.642 | 0.197 | 0.177 | 0.165 | 0.19 | 0.196 | 0.25 | 0.247 | 0.231 | 0.258 | 0.254
NCI-H838 | 1.04 | 1.13 | 1.07 | 0.984 | 0.996 | 0.456 | 0.393 | 0.361 | 0.357 | 0.422 | 1.29 | 1.13 | 0.998 | 0.965 | 0.891 | 0.291 | 0.228 | 0.221 | 0.207 | 0.259
NCI-H2126 | 1.12 | 1.18 | 1.22 | 0.862 | 1.15 | 0.816 | 0.641 | 0.666 | 0.585 | 0.664 | 0.757 | 0.768 | 0.762 | 0.711 | 0.78 | 0.674 | 0.736 | 0.671 | 0.641 | 0.741
COR-L23 | 0.88 | 0.861 | 0.863 | 0.836 | 0.975 | 0.844 | 0.792 | 0.673 | 0.669 | 0.6 | 0.919 | 1.16 | 1.05 | 0.792 | 0.722 | 0.191 | 0.192 | 0.199 | 0.177 | 0.194
LXF-289 | 0.873 | 0.918 | 0.879 | 0.916 | 0.912 | 0.81 | 0.849 | 0.745 | 0.763 | 0.718 | 0.935 | 0.894 | 0.888 | 0.838 | 0.875 | 0.908 | 0.818 | 0.692 | 0.886 | 0.916
HCC-15 |  | 1.06 | 1.1 | 0.905 | 0.911 | 0.719 | 0.691 | 0.658 | 0.628 | 0.509 | 0.928 | 0.859 | 0.808 | 0.742 | 0.827 | 0.225 | 0.217 | 0.192 | 0.167 | 0.245
NCI-H2085 | 0.854 | 0.892 | 0.865 | 1.04 | 1.19 | 0.858 | 0.706 | 0.767 | 0.612 | 0.549 | 0.726 | 0.683 | 0.873 | 0.619 | 0.768 | 0.777 | 0.876 | 0.823 | 0.782 | 0.949
NCI-H1563 | 0.99 | 1.02 | 1.09 | 1.01 | 1.05 | 0.812 | 0.865 | 0.731 | 0.706 | 0.718 | 0.682 | 1.03 | 0.943 | 0.891 | 0.834 | 0.765 | 0.795 | 0.708 | 0.681 | 0.622
NCI-H1650 | 1.41 | 1.34 | 1.42 | 1.3 | 1.18 |  | 0.776 | 0.456 | 0.463 | 0.541 | 0.626 | 0.796 | 0.908 | 0.756 | 0.689 | 0.347 | 0.325 | 0.37 | 0.378 | 0.386
HCC-78 | 0.752 | 0.674 | 0.894 | 0.662 | 0.79 | 0.355 | 0.298 | 0.384 | 0.34 | 0.332 | 0.568 | 0.731 | 0.942 | 0.829 | 0.748 | 0.934 | 0.854 | 0.588 | 0.909 | 0.871
LCLC-97TM1 | 0.912 | 0.808 | 0.875 | 0.895 | 1.02 | 0.516 | 0.427 | 0.456 | 0.395 | 0.329 | 0.845 | 0.818 | 0.586 | 0.604 | 0.475 | 0.139 | 0.161 | 0.141 | 0.146 | 0.179
NCI-H1651 | 1.01 | 0.765 | 1.03 | 0.802 | 1.02 | 0.782 | 0.867 | 0.647 | 0.683 | 0.599 | 0.914 | 0.909 | 0.709 | 0.698 | 0.76 | 0.555 | 0.556 | 0.531 | 0.483 | 0.552
NCI-H1944 | 0.881 | 0.995 | 1.03 | 0.924 | 0.996 | 0.419 | 0.387 | 0.361 | 0.378 | 0.405 | 0.832 | 0.863 | 0.736 | 0.745 | 0.739 | 0.562 | 0.501 | 0.456 | 0.51 | 0.687
